According to patent publication US7834024B2, “Compositions and methods for inhibition of the JAK pathway” (Rigel Pharmaceuticals, Inc., priority 2007, dated 2010):
Read-outs that look alike come from different tables or passages of the source.

Experiments:
[1] = tested on: Ramos B-Cell Line Stimulated with IL-4 (JAK-1 and JAK-3 / Stat-6, CD23); assay: Assay for Ramos B-Cell Line Stimulated with IL-4 (CD23 upregulation, FACS); format: cell-based; details: human Ramos B cells, compound 1 hour, IL-4 50 units/mL for 20-24 hours, anti-CD23-PE FACS, read-out: Example 2 (IC50)
Summary of the method: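 Human Ramos B cells (5×10^4 per point, RPMI with 5% serum) pre-incubated 1 hour at 37° C with compound or DMSO, then stimulated with IL-4 at 50 units/mL final for 20-24 hours. CD23 upregulation measured by flow cytometry.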

[2] = tested on: JAK2 (BaF3 V617F cells, UKE-1); assay: Proliferation Assay (Cell Titer-Glo, 72 hours); format: cell-based; details: proliferation 72 hours, BaF3 V617F or UKE-1 cells, cell line not given, read-out: Example 7 (IC50)
Method: • Dimethyl Sulfoxide (DMSO) (Sigma-Aldrich, Cat No. D2650) (Control) • Iscove's DMEM, ATCC Catalog #30-2005 • 1 M HEPES, Cellgro Catalog #25-060-Cl (100 mL) • 100 mM Sodium Pyruvate, Cellgro Catalog #25-000-Cl (100 mL) • Penicillin/Streptomycin, 10000 U/mL each, Cellgro Catalog #30-002-Cl (100 mL) • RPMI 1640 (Cellgro, Cat No. 10-040-CM) • Fetal Bovine Serum (JRH, Cat No. 12106-500M) • Donor Equine Serum, Hyclone Catalog #SH30074.02 (100 mL) • 50 μM hydrocortisone solution, Sigma Catalog #H6909-10 ml (10 mL) Culture Conditions
BaF3 V617F cells are maintained and plated in RPMI with 10% FBS. Plating density for these cells is 1×10^5 cells/mL.
UKE-1 are maintained and plated in Iscove's DMEM containing 10% FBS, 10% equine serum, 1% penicillin/streptomycin and 1 uM hydrocortisone. Plating density for these cells is 0.4×10^6 cells/mL
The cells were resuspended in a corresponding medium at a required cell density (see above). 100 μ of cell suspension was added to each well of a flat bottom 96 well white plate. The compound was serially diluted in DMSO from 5 mM in 3-fold dilutions, and then diluted 1:250 in the RPMI 1640 medium containing 5% FBS and pen/strep. 100 μL of resulting 2× compound solution was added per well in duplicate and the cells were allowed to proliferate for 72 hours at 37° C.
Proliferation was measured using Cell Titer-Glo. The substrate was thawed and allowed to come to room temperature. After removal of top 100 μL of medium from each well, 100 μL of the premixed Cell Titer-Glo reagent was added to each well. The plates were mixed on an orbital shaker for three minutes to induce lysis and incubated at ambient temperature for an additional five minutes to allow the signal to equilibrate. The Luminescence was read on the Wallac Plate Reader.
The results of the ability of the compounds of the invention to inhibit JAK2 activity, when tested in the above assay, are shown in the following Table IX wherein the level of activity (i.e. the IC50) for each compound is indicated in Table IX. Thae compound numbers in Table IX Refers to the compound disclosed herein as being preparded hy the methods disclosed herein: […]

Compound | IC50 ([1]; Homo sapiens, Ramos) [nM] | IC50 [2] [nM] | IC50 [1] [nM]
Cc1cnc(Nc2cccc(C#N)c2)nc1Nc1ccc2c(c1)N(C)C(=O)CO2 [II-10, N2-(3-Cyanophenyl)-5-methyl-N4-(4-methyl-3-oxo-2H-benzo[1,4]oxazin-6-yl)-2,4-pyrimidinediamine] | 116 | 980 | 
N2-(3-Aminocabonylphenyl)-N4-(3,4-dihydro-2H-4-methyl-3-oxo-5-pyrido[1,4]oxazin-6-yl)-2,4-pyrimidinediamine [II-42] |  | 1640 | 180
CNC(=O)COc1cccc(Nc2ncc(C)c(Nc3ccc4c(c3)NC(=O)C(F)(F)O4)n2)c1 [II-49, N4-(2,2-Difluoro-3-oxo[4H]benzo[1,4]oxazin-6-yl)-5-methyl-N2-[3-(N-Methylaminocarbonylmethyleneoxy)phenyl]-2,4-pyrimidinediamine] |  | 16400 | 98
Cc1cnc(Nc2cccc(C(N)=O)c2)nc1Nc1ccc2c(c1)N(C)C(=O)C(C)(C)O2 [II-39, N2-(3-Aminocarbonylphenyl)-5-methyl N4-(2,2,4-trimethyl-3-oxo-benz[1,4]oxazin-6-yl)-2,4-pyrimidinediamine] | 162 | 550 | 
Cc1cnc(Nc2cccc(C(N)=O)c2)nc1Nc1ccc2c(c1)N(C)C(=O)CS2 [II-41, N2-(3-Aminocarbonylphenyl)-N4-(3,4-dihydro-2H-4-methyl-3-oxo-benz[1,4]thiazin-6-yl)-5-methyl-2,4-pyrimidinediamine] |  | 2070 | 129
CNC(=O)COc1cc(Nc2ncc(F)c(Nc3ccc4c(c3)NC(=O)C(C)(C)O4)n2)cc(OC)c1OC [II-18, N2-[4,5-Dimethoxy-3-(N-methylaminocarbonylmethyleneoxy)phenyl]-N4-(2,2-dimethyl-3-oxo-benzo[1,4]oxazin-6-yl)-5-fluoro-2,4-pyrimidinediamine] |  | 653 | 25.1
CNC(=O)COc1cccc(Nc2ncc(C)c(Nc3ccc4c(c3)N(C)C(=O)CS4)n2)c1 [II-8, 5-Methyl-N2-[3-(N-methylaminocarbonylmethyleneoxy)phenyl]-N4-(4-methyl-3-oxo-2H-benzo[1,4]thiazin-6-yl)-2,4-pyrimidinediamine] |  | 223 | 56.4
CNC(=O)COc1cc(Nc2ncc(F)c(Nc3ccc4c(n3)NCC(C)(C)O4)n2)cc(OC)c1OC [II-33, N4-(3,4-Dihydro-2,2-dimethyl-4H-5-pyrido[1,4]oxazin-6-yl)-N2-[3,4-dimethoxy-5-(N-methylaminocarbonylmethoxy)phenyl]-5-fluoro-2,4-pyrimidinediamine] |  | 489 | 75.2
CN1C(=O)C(C)(C)Oc2ccc(Nc3nc(Nc4ccc5c(c4)C(=O)NCC5)ncc3F)nc21 [IV-2, 5-Fluoro-N2-(1-oxo-1,2,3,4-tetrahydroisoquinolin-7-yl)-N4-[3-oxo-2,2,4-trimethyl-5-pyrido[1,4]oxazin-6-yl]-2,4-pyrimidinediamine] | 748 | 4120 | 
CNC(=O)COc1cccc(Nc2ncc(C)c(Nc3ccc4c(c3)N(C)C(=O)C(F)(F)O4)n2)c1 [II-37, N4-(2,2-Difluoro-4-methyl-3-oxo-4H-benzo[1,4]oxazin-6-yl)-5-methyl-N2-[3-(N-methylaminocarbonylmethyleneoxy)phenyl]-2,4-pyrimidinediamine] |  | 492 | 80.2
5-Methyl-N2-(I-oxo-1,2,3,4-tetrahydroisoquinolin-7-yl)-N4-[3-oxo-2,2,4-trimethyl-5-pyrido[1,4]oxazin-6-yl]-2,4-pyrimidinediamine [IV-3] |  | 2150 | 231
CNC(=O)COc1cc(Nc2ncc(F)c(Nc3ccc4c(c3)NC(=O)C(C)(C)S4)n2)cc(OC)c1OC [II-17, N2-[4,5-Dimethoxy-3-(N-methylaminocarbonylmethyleneoxy)phenyl]-N4-(2,2-dimethyl-3-oxo-4H-benzo[1,4]thiazin-6-yl)-5-fluoro-2,4-pyrimidinediamine] |  | 160 | 57.3
N#CCOc1cccc(Nc2nc(Nc3ccc(C(N)=O)cc3)ncc2F)c1 [Compound I-44, N2-(4-Aminocarbonylphenyl)-N4-(3-cyanomethoxyphenyl)-5-fluoro-2,4-pyrimidinediamine] | 21.7 | 567 | 
CNC(=O)COc1cc(Nc2ncc(F)c(Nc3ccc4c(n3)NCC(C)(C)O4)n2)ccc1OC [II-32, N4-(3,4-Dihydro-2,2-dimethyl-2H-5-pyrido[1,4]oxazin-6-yl)-5-fluoro-N2-[4-methoxy-3-(N-methylaminocarbonylmethoxy)phenyl]-2,4-pyrimidinediamine] |  | 1090 | 89.6
Cc1cnc(Nc2cccc(C#N)c2)nc1Nc1ccc2c(c1)N(C)C(=O)CS2 [II-7, N2-(3-Cyanophenyl)-5-methyl-N4-(4-methyl-3-oxo-2H-benzo[1,4]thiazin-6-yl)-2,4-pyrimidinediamine] | 116 | 1430 | 
CN1CCN(C(=O)c2ccc(Nc3ncc(F)c(Nc4ccc(OCC#N)cc4)n3)cc2)CC1 [Compound I-31, N4-(4-Cyanomethoxyphenyl)-5-fluoro-N2-[4-((4-methylpiperazin-1-yl)carbonyl)phenyl]-2,4-pyrimidinediamine] | 62.3 | 1260 | 
Cc1cnc(Nc2cccc(C(N)=O)c2)nc1Nc1ccc2c(c1)N(C)C(=O)C(C)(C)S2 [II-45, N2-(3-Aminocarbonylphenyl)-5-methyl-N4-(2,2,4-trimethyl-3-oxo-benz[1,4]thiazin-6-yl)-2,4-pyrimidinediamine] | 179 | 432 | 
Cc1cnc(Nc2cccc(C#N)c2)nc1Nc1ccc2c(c1)NC(=O)CO2 [II-6, N2-(3-Cyanophenyl)-5-methyl-N4-(3-oxo-2H,4H-benzo[1,4]oxazin-6-yl)-2,4-pyrimidinediamine] | 69.7 | 68300 | 
COc1ccc(Nc2nc(Nc3ccc(C(=O)Nc4ccnn4C)cc3)ncc2F)cc1Cl [Compound I-4, N4-(3-Chloro-4-methoxyphenyl)-5-fluoro-N2-[4-((1-methyl-1H-pyrazol-5-yl)aminocarbonyl)phenyl]-2,4-pyrimidinediamine] | 57.5 |  | 
CC(C#N)Oc1ccc(Nc2nc(Nc3ccc(C#N)cc3)ncc2F)cc1 (centres unmarked) [Compound I-79, N4-[4-(I-Cyanoethoxy)phenyl]-N2-(4-cyanophenyl)-5-fluoro-2,4-pyrimidinediamine] |  |  | 361
Cc1noc(COc2ccc(Nc3nc(Nc4ccc(CC#N)cc4)ncc3F)cc2)n1 [Compound I-110, N2-(4-Cyanomethylphenyl)-5-fluoro-N4-[4-((3-methyl-1,2,4-oxadiazol-5-yl)methoxy)phenyl]-2,4-pyrimidinediamine] | 29.8 |  | 
CC(C)(C#N)Oc1ccc(Nc2nc(Nc3ccc(CC#N)cc3)ncc2F)cc1 [Compound I-83, N4-[4-(1-Cyano-1-methylethoxy)phenyl]-N2-(4-cyanomethylphenyl)-5-fluoro-2,4-pyrimidinediamine] | 424 |  | 
COc1ccc(Nc2nc(Nc3cccc(C#N)c3)ncc2F)cc1Cl [Compound I-18, N4-(3-Chloro-4-methoxyphenyl)-N2-(3-cyanophenyl)-5-fluoro-2,4-pyrimidinediamine] | 266 |  | 
CCn1nccc1NC(=O)c1ccc(Nc2ncc(F)c(Nc3ccc(OC)c(Cl)c3)n2)cc1 [Compound I-3, N4-(3-Chloro-4-methoxyphenyl)-N2-[4-((I-ethyl-1H-pyrazol-5-yl)aminocarbonyl)phenyl]-5-fluoro-2,4-pyrimidinediamine] |  |  | 119
CN1CCN(c2ccc(Nc3ncc(F)c(Nc4ccc(CC#N)cc4)n3)cc2C(N)=O)CC1 [Compound I-74, N2-[3-Aminocarbonyl-4-(4-methylpiperazin-1-yl)phenyl]-N4-(4-cyanomethylphenyl)-5-fluoro-2,4-pyrimidinediamine] | 429 |  | 
N#CCOc1ccc(Nc2nc(Nc3cccc(C#N)c3)ncc2F)cc1 [Compound I-30, N4-(4-Cyanomethoxyphenyl)-N2-(3-cyanophenyl)-5-fluoro-2,4-pyrimidinediamine] | 71 |  | 
